{"source": "patent US9018235B2", "about": "“Insecticide compositions” (priority 2004, dated 2015)", "format_in_all_cases": "in vivo", "key": {"[1]": {"test_system": "Plutella xylostella", "assay": "Insecticidal effect against Plutella xylostella through plant-root soil drenching of cabbage (Test Example 4)", "details": "single compound, plant-root drench, 2-instar larvae", "text": "(§1) When the effect obtained by combination of two kinds of the active compounds exceeds the expected value E as calculated by the below-described equation of Colby et al., the synergistic effect is deemed to exist. E=X+Y−X·Y/100 [Equation 2] wherein • E=the death rate of larvae obtained when the active compounds A and B are used at the dose of m and n, respectively; • X=the death rate of larvae when the active compound A is used at the dose of m; • Y=the death rate of larvae when the active compound B is used at the dose of n.\nA test compound was dissolved by adding acetone containing 5% of Tween 20 (tradename) at the rate of 0.1 ml per 1 mg of the test compound, and the solution was diluted with ion-exchange water to a total volume of 3 ml. Each of the insecticide solutions prepared was drenched onto the surface of the plant root soil for a cabbage plant grown in a cell tray (with a soil capacity of 24 ml). Four days later, the above-ground part of the plant was cut and placed in a plastic cup, into which 10 heads of 2-instar larvae of Plutella xylostella were released. The cup was kept in a breeding chamber controlled at a constant temperature (25° C.), and the number of living larvae was counted 4 days later. Death rate of larvae=(Number of larvae dead)/(Number of larvae tested)×100 [Equation 5]"}, "[2]": {"test_system": "Chilo suppressalis", "text": "as §1\nA test compound was dissolved by adding acetone containing 5% of Tween 20 (tradename) at the rate of 0.1 ml per 1 mg of the test compound, and the insecticide solution prepared by diluting the solution with ion-exchange water to a predetermined concentration was drenched onto the surface of the soil for raising rice seedlings (5 to 6 seedlings/plant as planted in a paper pot) in the 2.5- to 3-leaf stage at the rate of 1 ml per plant. Two days later, the stalks about 2 cm higher above the soil surface were cut and placed in a test tube, into which 10 heads of 3-instar larvae of Chilo suppressalis were released. The test rube was kept in a breeding chamber controlled at a constant temperature (25° C.), and the number of living larvae was counted 4 to 5 days later. Death rate of larvae=(Number of larvae dead)/(Number of larvae tested)×100 [Equation 4]"}, "[3]": {"test_system": "Spodoptera litura", "assay": "Insecticidal effect against Spodoptera litura through soaking treatment of soybean roots (Test Example 2)", "details": "single compound, soybean root soaking, 3-instar larvae", "text": "as §1\nA test compound was dissolved by adding acetone containing 5 of Tween 20 (tradename) at the rate of 0.1 ml per 1 mg of the test compound, and the insecticide solution prepared by diluting the solution with ion-exchange water to a predetermined concentration was charged into a light-shielded Erlenmeyer flask (100 ml), into which the root portion of a soybean plant in the stage of development of primary leaves was soaked after being washed with running water to remove soil. Five days after root soaking, two primary leaves were cut off and placed in an ice-cream cup (with a capacity of 180 ml), into which 10 heads of 3-instar larvae were released. The ice-cream cup was kept in a breeding room controlled at a constant temperature (25° C.), and 5 days later, the number of dead larvae was counted. Death rate of larvae=(Number of larvae dead)/(Number of larvae tested)×100 [Equation 3]"}, "[4]": {"test_system": "Spodoptera litura", "assay": "Insecticidal effect against Spodoptera litura by soaking treatment of soybean leaves (Test Example 1)", "details": "single compound, 0.03 ppm; soybean leaf soaking; 3-instar larvae; 25° C.", "protocol": "A test compound was dissolved by addition of acetone containing 5% of Tween 20 (tradename) at the rate of 0.1 ml per 1 mg of the test compound, and after the solution is diluted with aqueous 5,000-fold diluted DAIN solution to a predetermined concentration, soybean leaves after complete development of primary leaves were treated through soaking in the insecticide solution for several seconds. After the insecticide solution was dried, four primary leaves were cut off and placed in an ice-cream cup (with a capacity of 180 ml), in which 10 heads of 3-instra larvae of Spodoptera litura were released. The ice-cream cup was kept in a breeding room controlled at a constant temperature (25° C.), and the number of dead larvae was counted three days later. Death rate of larvae=(Number of larvae dead)/(Number of larvae tested)×100 [Equation 1]\nas §1"}, "[5]": {"test_system": "Plutella xylostella", "assay": "Insecticidal effect against Plutella xylostella through soaking treatment of cabbage leaf (Test Example 5)", "details": "single compound, amount applied 0.0064 mg/plant (as headed), 2-instar larvae", "text": "as §1\nA test compound was dissolved by adding acetone containing 5% of Tween 20 (tradename) at the rate of 0.1 ml per 1 mg of the test compound, and the insecticide solution was prepared by diluting the solution with an aqueous 5.000-fold diluted DAIN solution to a predetermined concentration. A cabbage leaf was cut off at the site of petiole and soaked in the insecticide solution for several seconds. […] The cup was kept in a breeding room controlled at a constant temperature (25° C.), and the number of dead larvae was counted 4 days later. The death rate of larvae was calculated by the following equation, and the results were shown in Table 8: (Death rate of larvae=(Number of larvae dead)/(Number of larvae tested)×100 [Equation 6]"}}, "note": "Like-named read-outs stand apart in the source and are kept apart here."}
{"smiles": "CNC(=N[N+](=O)[O-])NCC1CCOC1", "note": "(racemic) [Dinotefuran, (RS)-1-methyl-2-nitro-3-(tetrahydro-3-furylmethyl)guanidine]", "values": [{"measurement": "Death rate, 4 days later, %", "setting": "[1]; 0.0016 mg/plant", "result": 0, "unit": "%"}, {"measurement": "Death rate, 4 days later, %", "setting": "[1]; 0.04 mg/plant", "result": 10, "unit": "%"}, {"measurement": "Death rate, 5 days later, %", "setting": "[2]; in vivo", "result": 0, "unit": "%"}]}
{"smiles": "CN/C(=N\\[N+](=O)[O-])NCc1cnc(Cl)s1", "note": "[Clothianidin, (E)-1-(2-chloro-1,3-thiazol-5-ylmethyl)-3-methyl-2-nitroguanidine]", "values": [{"measurement": "Death rate, 5 days later, %", "setting": "[3]; 0.00032 ppm", "result": 0, "unit": "%"}, {"measurement": "Death rate, 4 days later, %", "setting": "[2]; single compound, 0.001 mg/plant, soil drench, rice, 3-instar larvae", "result": 10, "unit": "%"}, {"measurement": "Death rate, 3 days later, %", "setting": "[4]", "result": 0, "unit": "%"}]}
{"smiles": "Cc1cccc(C(=O)NC(C)C)c1NC(=O)c1cc(C(F)(F)F)nn1-c1ncccc1Cl", "note": "[Compound (I-1), 2-[1-(3-chloropyridin-2-yl)-3-trifluoromethylpyrazol-5-ylcarbonylamino]-N-isopropyl-3-methylbenzamide]", "values": [{"measurement": "Death rate, 5 days later, %", "setting": "[3]; 0.007 ppm", "result": 55, "unit": "%"}, {"measurement": "Death rate, 4 days later, %", "setting": "[2]; single compound, 0.01 mg/plant, soil drench, rice, 3-instar larvae", "result": 30, "unit": "%"}]}
{"smiles": "Cc1cc(Cl)cc(C(=O)NC(C)C)c1NC(=O)c1cc(C(F)(F)F)nn1-c1ncccc1Cl", "note": "[Compound (I-2), 5-chloro-2-[1-(3-chloropyridin-2-yl)-3-trifluoromethylpyrazol-5-ylcarbonylamino]-N-isopropyl-3-methylbenzamide]", "values": [{"measurement": "Death rate, 4 days later, %", "setting": "[1]; 0.0016 mg/plant", "result": 0, "unit": "%"}, {"measurement": "Death rate, 3 days later, %", "setting": "[4]", "result": 30, "unit": "%"}]}
{"smiles": "Cc1cccc(C(=O)NC(C)C)c1NC(=O)c1cc(Cl)nn1-c1ncccc1Cl", "note": "[Compound (I-3), 2-[1-(3-chloropyridin-2-yl)-3-chloropyrazol-5-ylcarbonylamino]-N-isopropyl-3-methylbenzamide]", "values": [{"measurement": "Death rate, 4 days later, %", "setting": "[1]; 0.04 mg/plant", "result": 50, "unit": "%"}]}
{"smiles": "Cc1cc(Cl)cc(C(=O)NC(C)C)c1NC(=O)c1cc(Cl)nn1-c1ncccc1Cl", "note": "[Compound (I-4), 5-chloro-2-[1-(3-chloropyridin-2-yl)-3-chloropyrazol-5-ylcarbonylamino]-N-isopropyl-3-methylbenzamide]", "values": [{"measurement": "Death rate, 4 days later, %", "setting": "[5]", "result": 15, "unit": "%"}]}
{"smiles": "Cc1cccc(C(=O)NC(C)C)c1NC(=O)c1cc(Br)nn1-c1ncccc1Cl", "note": "[Compound (I-5), 2-[3-bromo-1-(3-chloropyridin-2-yl)pyrazol-5-ylcarbonylamino]-N-isopropyl-3-methylbenzamide]", "values": [{"measurement": "Death rate, 5 days later, %", "setting": "[2]; single compound, 0.15 mg/plant, soil drench, rice, 3-instar larvae", "result": 5, "unit": "%"}]}
{"smiles": "Cc1cc(Cl)cc(C(=O)NC(C)C)c1NC(=O)c1cc(Br)nn1-c1ncccc1Cl", "note": "[Compound (I-6), 2-[3-bromo-1-(3-chloropyridin-2-yl)-pyrazol-5-ylcarbonylamino]-5-chloro-N-isopropyl-3-methylbenzamide]", "values": [{"measurement": "Death rate, 5 days later, %", "setting": "[3]; 0.00032 ppm", "result": 0, "unit": "%"}]}
{"smiles": "CN1COCN(Cc2cnc(Cl)s2)C1=N[N+](=O)[O-]", "note": "[Thiamethoxam, 3-(2-chloro-1,3-thiazol-5-yl-methyl)-5-methyl-1,3,5-oxa-diazinan-4-ylidene(nitro)amine]", "values": [{"measurement": "Death rate, 5 days later, %", "setting": "[3]; 0.007 ppm", "result": 0, "unit": "%"}, {"measurement": "Death rate, 4 days later, %", "setting": "[5]", "result": 10, "unit": "%"}]}
